Measurements as given in ChEMBL document CHEMBL5465560, “Selectivity Literature for EUbOPEN Chemogenomic Library” (2024).
Blank lines part the entries; values can stand above or below the compound they belong to.

Tests used:
[1] = target: Calcium/calmodulin-dependent protein kinase kinase 1 (Homo sapiens) (UniProt Q8N5S9); experiment: Selectivity interaction (LanthaScreen Eu Kinase Binding Assay) EUB0001632a CAMKK1; conditions: at 10 µM
[2] = test system: Fibroblast growth factor receptor 3 (Homo sapiens), P22607 [G697C]; experiment: (§1) Selectivity interaction (KinomeScan (DiscoverX)) EUB0000666a FGFR3; conditions: at 10 µM
Fibroblast growth factor receptor 3 (Homo sapiens), P22607 [G697C], sequence (P22607 whole entry G697C): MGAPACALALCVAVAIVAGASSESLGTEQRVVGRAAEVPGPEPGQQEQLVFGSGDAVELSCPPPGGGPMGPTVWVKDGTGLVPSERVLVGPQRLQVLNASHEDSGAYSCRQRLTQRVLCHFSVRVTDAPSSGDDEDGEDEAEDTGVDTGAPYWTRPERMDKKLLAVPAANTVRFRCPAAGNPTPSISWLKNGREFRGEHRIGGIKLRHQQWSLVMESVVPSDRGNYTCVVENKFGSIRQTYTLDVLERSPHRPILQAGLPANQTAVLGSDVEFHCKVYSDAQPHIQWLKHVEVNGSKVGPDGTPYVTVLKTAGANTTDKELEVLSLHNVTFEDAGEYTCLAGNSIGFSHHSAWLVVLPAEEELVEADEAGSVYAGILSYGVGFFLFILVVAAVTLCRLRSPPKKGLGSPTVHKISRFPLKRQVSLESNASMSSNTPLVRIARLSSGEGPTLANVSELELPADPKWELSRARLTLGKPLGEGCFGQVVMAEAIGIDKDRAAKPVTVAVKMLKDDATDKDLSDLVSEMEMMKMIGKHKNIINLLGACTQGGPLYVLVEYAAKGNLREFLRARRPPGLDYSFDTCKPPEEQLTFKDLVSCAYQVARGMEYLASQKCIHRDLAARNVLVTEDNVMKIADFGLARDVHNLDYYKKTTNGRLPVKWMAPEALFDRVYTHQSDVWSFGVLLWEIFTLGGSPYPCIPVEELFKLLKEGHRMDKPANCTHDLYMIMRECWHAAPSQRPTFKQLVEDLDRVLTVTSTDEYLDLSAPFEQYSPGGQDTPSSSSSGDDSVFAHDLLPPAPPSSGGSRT

[3] = target: Fibroblast growth factor receptor 3 (Homo sapiens, UniProt P22607); experiment: as §1; conditions: at 10 µM
Fibroblast growth factor receptor 3, sequence (P22607 23-806 limits assumed): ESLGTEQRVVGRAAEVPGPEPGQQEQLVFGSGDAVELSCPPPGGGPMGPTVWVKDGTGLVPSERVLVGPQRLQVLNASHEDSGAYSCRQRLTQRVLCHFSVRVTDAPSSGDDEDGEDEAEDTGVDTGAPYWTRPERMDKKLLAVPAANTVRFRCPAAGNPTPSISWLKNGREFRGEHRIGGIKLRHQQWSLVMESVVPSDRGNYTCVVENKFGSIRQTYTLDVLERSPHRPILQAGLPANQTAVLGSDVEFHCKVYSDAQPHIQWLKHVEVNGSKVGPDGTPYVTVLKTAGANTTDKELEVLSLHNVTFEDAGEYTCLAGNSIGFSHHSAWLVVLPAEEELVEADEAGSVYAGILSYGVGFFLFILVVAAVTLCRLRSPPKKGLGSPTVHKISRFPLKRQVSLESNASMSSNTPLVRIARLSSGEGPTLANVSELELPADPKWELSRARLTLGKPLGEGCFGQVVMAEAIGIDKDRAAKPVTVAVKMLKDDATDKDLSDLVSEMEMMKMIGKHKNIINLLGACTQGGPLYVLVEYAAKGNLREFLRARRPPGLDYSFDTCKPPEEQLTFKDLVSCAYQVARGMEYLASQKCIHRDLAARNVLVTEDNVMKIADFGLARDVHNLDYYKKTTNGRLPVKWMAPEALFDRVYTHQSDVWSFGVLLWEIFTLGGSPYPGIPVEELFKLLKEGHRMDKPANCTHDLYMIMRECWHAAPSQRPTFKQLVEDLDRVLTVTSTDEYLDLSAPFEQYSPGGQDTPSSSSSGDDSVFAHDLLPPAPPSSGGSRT

[4] = target: Serine/threonine-protein kinase PAK 1 (Homo sapiens) (UniProt Q13153); experiment: Selectivity interaction (KinomeScan (DiscoverX)) EUB0000666a PAK1; conditions: at 10 µM
Serine/threonine-protein kinase PAK 1 (Homo sapiens), sequence (Q13153 whole entry): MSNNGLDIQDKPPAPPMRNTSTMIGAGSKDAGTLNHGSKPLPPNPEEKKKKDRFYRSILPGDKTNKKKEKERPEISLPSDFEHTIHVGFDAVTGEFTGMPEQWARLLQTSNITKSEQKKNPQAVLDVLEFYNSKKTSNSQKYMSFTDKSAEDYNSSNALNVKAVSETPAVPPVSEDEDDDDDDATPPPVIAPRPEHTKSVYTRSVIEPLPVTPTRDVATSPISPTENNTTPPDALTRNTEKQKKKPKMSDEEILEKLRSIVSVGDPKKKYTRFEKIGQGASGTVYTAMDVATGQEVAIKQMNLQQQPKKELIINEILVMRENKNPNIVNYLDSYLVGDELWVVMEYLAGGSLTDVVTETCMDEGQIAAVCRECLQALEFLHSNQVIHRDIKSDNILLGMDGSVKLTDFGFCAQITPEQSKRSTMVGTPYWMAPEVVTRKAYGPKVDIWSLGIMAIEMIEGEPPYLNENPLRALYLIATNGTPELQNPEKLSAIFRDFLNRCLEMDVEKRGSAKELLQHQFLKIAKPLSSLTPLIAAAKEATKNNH

[5] = target: Serine/threonine-protein kinase PLK3 (Homo sapiens, UniProt Q9H4B4); experiment: Selectivity interaction (KinomeScan (DiscoverX)) EUB0000666a PLK3; conditions: at 10 µM
[6] = target: Cyclin-dependent kinase 9 (Homo sapiens, UniProt P50750); experiment: Selectivity interaction (Kinase panel (Invitrogen)) EUB0000639a CDK9; conditions: at 200 nM
[7] = target: CDK2/Cyclin A2 (Homo sapiens) (UniProt P24941+P20248); experiment: (§2) Selectivity interaction (ProQinase) EUB0000171b CDK2; type: protein-complex assay
[8] = target: Cyclin-dependent kinase 2/cyclin E1 (Homo sapiens) (UniProt P24864+P24941); experiment: as §2; type: protein-complex assay
[9] = target: Serine/threonine-protein kinase N1 (Homo sapiens, UniProt Q16512); experiment: Selectivity interaction (KinomeScan (DiscoverX)) EUB0000695a PKN1; conditions: at 100 nM
Serine/threonine-protein kinase N1, sequence (Q16512 2-942 limits assumed): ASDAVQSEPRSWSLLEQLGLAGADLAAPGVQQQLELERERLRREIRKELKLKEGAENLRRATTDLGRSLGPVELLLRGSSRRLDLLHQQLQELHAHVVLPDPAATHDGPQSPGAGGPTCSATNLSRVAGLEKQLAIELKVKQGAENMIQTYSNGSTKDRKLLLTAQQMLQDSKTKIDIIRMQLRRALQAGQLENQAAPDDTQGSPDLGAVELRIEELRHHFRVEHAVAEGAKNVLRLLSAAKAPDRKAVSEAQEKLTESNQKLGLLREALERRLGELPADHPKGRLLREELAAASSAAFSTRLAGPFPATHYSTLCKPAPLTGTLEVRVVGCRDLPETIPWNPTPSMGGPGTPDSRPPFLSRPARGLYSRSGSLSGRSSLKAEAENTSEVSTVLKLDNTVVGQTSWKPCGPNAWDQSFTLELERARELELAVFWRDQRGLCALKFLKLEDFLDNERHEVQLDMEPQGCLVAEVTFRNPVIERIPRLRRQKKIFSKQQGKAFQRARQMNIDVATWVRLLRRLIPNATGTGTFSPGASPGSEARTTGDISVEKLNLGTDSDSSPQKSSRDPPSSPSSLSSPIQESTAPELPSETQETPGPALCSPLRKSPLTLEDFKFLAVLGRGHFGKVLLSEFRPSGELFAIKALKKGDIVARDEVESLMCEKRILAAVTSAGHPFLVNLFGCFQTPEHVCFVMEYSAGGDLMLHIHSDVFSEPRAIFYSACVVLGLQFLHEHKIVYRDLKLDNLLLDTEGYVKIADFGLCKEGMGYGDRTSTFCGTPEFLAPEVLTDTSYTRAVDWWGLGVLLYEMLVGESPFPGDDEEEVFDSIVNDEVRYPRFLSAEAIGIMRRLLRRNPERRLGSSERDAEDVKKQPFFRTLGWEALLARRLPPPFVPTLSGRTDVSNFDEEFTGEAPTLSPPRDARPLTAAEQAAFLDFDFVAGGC

[10] = test system: eIF-2-alpha kinase GCN2 (Homo sapiens), Q9P2K8 [S808G]; experiment: Selectivity interaction (KinomeScan (DiscoverX)) EUB0000595a EIF2AK4; conditions: at 10 µM
[11] = target: Mitogen-activated protein kinase 10 (Homo sapiens, UniProt P53779); experiment: Selectivity interaction (KinomeScan (DiscoverX)) EUB0000045b MAPK10
Mitogen-activated protein kinase 10, sequence (P53779 whole entry): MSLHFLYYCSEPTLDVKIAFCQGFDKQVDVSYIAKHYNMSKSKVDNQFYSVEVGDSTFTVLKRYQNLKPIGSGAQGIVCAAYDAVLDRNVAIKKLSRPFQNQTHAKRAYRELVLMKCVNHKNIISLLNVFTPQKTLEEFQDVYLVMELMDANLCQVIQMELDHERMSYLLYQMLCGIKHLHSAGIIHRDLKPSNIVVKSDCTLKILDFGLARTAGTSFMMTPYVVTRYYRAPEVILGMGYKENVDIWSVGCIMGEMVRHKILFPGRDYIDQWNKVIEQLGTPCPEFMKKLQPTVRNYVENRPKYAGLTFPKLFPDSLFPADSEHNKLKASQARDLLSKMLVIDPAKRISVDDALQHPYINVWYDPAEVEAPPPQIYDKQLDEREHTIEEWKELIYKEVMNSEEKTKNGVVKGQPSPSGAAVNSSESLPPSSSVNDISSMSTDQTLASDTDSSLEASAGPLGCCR

[12] = target: T1, Cyclin-G-associated kinase (Homo sapiens) (UniProt O14976); experiment: Selectivity interaction (KinomeScan (DiscoverX)) EUB0001079a GAK; conditions: at 1 µM
T1 sequence (whole entry): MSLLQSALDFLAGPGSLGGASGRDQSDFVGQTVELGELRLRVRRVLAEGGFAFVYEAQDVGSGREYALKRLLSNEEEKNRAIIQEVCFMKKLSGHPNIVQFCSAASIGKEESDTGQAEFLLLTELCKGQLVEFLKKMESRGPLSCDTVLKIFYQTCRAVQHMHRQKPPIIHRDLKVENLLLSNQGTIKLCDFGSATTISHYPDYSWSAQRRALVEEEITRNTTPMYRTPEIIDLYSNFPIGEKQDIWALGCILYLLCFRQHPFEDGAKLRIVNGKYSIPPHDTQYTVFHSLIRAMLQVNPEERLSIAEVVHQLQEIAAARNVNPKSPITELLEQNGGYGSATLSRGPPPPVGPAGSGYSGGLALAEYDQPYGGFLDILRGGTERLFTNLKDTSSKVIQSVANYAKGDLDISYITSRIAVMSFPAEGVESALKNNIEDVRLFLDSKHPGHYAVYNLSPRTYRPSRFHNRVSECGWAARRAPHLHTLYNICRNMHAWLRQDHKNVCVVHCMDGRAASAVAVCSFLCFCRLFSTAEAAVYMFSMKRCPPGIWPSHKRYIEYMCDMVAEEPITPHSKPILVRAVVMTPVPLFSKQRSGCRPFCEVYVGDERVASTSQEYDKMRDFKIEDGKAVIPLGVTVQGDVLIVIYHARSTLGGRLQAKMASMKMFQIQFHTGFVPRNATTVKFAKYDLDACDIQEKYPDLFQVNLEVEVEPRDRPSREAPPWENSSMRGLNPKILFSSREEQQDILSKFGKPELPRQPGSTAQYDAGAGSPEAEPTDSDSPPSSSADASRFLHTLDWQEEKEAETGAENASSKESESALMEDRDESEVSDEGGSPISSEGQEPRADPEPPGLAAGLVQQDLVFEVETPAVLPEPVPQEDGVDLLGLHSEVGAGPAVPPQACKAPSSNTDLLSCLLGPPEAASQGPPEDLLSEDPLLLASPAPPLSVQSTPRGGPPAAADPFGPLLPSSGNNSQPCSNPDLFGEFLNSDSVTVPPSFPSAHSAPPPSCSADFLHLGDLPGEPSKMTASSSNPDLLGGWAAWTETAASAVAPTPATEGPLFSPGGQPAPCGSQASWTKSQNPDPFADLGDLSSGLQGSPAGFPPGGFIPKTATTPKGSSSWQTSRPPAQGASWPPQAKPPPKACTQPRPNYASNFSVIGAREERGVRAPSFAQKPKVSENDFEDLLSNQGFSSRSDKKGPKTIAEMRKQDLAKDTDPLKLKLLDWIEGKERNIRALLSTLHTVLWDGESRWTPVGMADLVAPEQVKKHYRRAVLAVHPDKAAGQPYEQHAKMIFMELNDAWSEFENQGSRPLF

[13] = target: cAMP-dependent protein kinase catalytic subunit beta (Homo sapiens) (UniProt P22694); experiment: Selectivity interaction (KinomeScan (DiscoverX)) EUB0000229b PRKACB; conditions: at 10 µM
[14] = target: Ribosomal protein S6 kinase beta-1 (Homo sapiens, UniProt P23443); experiment: Selectivity interaction (KinomeScan (DiscoverX)) EUB0000229b RPS6KB1; conditions: at 10 µM
Ribosomal protein S6 kinase beta-1, sequence (P23443 whole entry, looked up): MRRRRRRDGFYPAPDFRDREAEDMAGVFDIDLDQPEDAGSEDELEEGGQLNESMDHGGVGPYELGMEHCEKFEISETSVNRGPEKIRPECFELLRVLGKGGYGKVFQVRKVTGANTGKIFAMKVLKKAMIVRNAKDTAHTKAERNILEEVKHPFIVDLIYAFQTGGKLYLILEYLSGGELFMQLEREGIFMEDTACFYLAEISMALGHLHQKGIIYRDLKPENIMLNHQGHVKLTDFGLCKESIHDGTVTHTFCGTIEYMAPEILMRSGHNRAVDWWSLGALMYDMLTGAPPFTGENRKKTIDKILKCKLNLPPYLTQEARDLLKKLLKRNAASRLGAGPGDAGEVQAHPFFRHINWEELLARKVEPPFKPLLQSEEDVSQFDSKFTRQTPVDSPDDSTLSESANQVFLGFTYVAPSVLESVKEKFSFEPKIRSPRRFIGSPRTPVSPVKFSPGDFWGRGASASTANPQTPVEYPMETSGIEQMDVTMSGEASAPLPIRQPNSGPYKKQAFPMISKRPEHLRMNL

[15] = target: T2, Dual specificity tyrosine-phosphorylation-regulated kinase 2 (Homo sapiens) (UniProt Q92630); experiment: Selectivity interaction (KinomeScan (DiscoverX)) EUB0000618a DYRK2; conditions: at 10 µM
T2 sequence (whole entry): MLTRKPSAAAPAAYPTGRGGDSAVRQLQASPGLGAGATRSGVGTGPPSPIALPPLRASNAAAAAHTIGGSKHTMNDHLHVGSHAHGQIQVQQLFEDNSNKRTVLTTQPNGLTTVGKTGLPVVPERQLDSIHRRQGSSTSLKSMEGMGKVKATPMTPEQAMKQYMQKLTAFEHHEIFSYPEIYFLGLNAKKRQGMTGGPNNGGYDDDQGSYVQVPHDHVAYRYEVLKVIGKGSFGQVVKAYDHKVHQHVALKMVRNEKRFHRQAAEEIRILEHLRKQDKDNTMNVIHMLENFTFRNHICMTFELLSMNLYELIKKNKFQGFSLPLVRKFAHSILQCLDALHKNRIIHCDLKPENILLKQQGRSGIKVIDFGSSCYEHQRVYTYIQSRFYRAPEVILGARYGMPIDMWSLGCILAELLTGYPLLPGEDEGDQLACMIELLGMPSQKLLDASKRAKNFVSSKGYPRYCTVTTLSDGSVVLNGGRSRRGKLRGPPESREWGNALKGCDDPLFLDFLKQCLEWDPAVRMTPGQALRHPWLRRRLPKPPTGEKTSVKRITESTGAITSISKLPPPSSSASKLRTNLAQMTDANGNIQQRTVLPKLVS

[16] = target: Serine/threonine-protein kinase tousled-like 2 (Homo sapiens) (UniProt Q86UE8); experiment: Selectivity interaction (KinomeScan (DiscoverX)) EUB0001619a TLK2; conditions: at 1 µM
Serine/threonine-protein kinase tousled-like 2 (Homo sapiens), sequence (Q86UE8 whole entry, looked up): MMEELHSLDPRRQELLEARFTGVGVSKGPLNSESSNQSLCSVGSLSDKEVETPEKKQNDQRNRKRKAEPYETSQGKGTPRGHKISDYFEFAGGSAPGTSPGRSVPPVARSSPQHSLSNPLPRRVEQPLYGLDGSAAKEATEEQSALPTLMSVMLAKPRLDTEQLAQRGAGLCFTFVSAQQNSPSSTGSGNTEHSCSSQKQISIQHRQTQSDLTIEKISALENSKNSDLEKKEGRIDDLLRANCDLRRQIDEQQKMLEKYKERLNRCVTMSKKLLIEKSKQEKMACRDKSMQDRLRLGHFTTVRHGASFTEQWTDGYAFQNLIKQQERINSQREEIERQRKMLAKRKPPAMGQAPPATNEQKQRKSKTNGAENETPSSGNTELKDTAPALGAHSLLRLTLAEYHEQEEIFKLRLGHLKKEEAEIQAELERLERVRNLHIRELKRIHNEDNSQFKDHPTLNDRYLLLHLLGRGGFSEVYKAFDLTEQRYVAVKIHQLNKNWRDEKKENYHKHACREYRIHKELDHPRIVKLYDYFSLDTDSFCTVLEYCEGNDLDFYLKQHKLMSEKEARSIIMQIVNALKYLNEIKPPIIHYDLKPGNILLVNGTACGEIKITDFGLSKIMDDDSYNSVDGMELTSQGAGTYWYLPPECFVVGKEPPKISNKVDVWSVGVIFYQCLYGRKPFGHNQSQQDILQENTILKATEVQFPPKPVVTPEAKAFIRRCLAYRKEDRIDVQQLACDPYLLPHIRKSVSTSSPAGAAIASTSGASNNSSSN

- % of inhibition [1]: -49.1%
Compound: Cn1cc(-n2cnc3c(NCc4nc5cc(Cl)c(Cl)cc5[nH]4)nc(N4CCOCC4)nc32)cn1

Compound: O=C(NOC[C@H](O)CO)c1ccc(F)c(F)c1Nc1ccc(I)cc1F
- % of control [2]: 88%
- % of control [3]: 100%
- % of control [4]: 100%
- % of control [5]: 100%

- % of inhibition [6]: 4.37%
Compound: CC[C@@H]1[C@H](F)C(=O)N[C@@H]1COc1nccc2cc(C(N)=O)c(OC)cc12 [ZIMLOVISERTIB]

- % of control ([7]; at 1 µM): 78%
- % of control ([7]; at 5 µM): 56%
- % of control ([8]; at 1 µM): 88%
- % of control ([8]; at 5 µM): 62%
Compound: C=CC(=O)Nc1cccc(C(=O)Nc2ccc(Nc3cc(-c4[nH]c(SC)nc4C)ccn3)cc2)c1

Compound: Cc1cc(F)c(C(=O)Nc2cccc(-c3nncn3C(C)C)n2)cc1-n1cnc(C2CC2)c1
- % of control [9]: 83%

Compound: COCC(=O)NC/C=C/c1ccc2ncnc(Nc3ccc(Oc4ccc(C)nc4)c(C)c3)c2c1 [CP-724714]
- % of control [10]: 81%

Compound: C=CC(=O)Nc1cc(-n2c(=O)ccc3cnc4ccc(-c5ccc(NS(C)(=O)=O)cc5)cc4c32)ccc1C
- % of control ([11]; at 1 µM): 100%
- % of control ([11]; at 10 µM): 20%

Compound: Nc1cnc(N2CCc3cc(S(=O)(=O)Nc4c(F)cc(Cl)cc4F)cc(N4CCCC4=O)c32)nc1 [TP-020n]
- % of control [12]: 100%

Compound: COc1cc(N(C)c2ccnc3ccc(C(F)(F)F)cc23)cc(OC)c1OC
- % binding [13]: 75%
- % binding [14]: 71%

Compound: O[C@H]1CC[C@H](Nc2ncc3nc(Nc4c(F)cc(F)cc4F)n([C@H]4CCOC4)c3n2)CC1
- % of control [15]: 100%

Compound: N#Cc1cccc(-c2c[nH]c3ncnc(N4CCOCC4)c23)c1
- % of control [16]: 93%
